# Test results published in patent US20170050957A1, “4-AMINO-6-(HETEROCYCLIC)PICOLINATES AND 6-AMINO-2-(HETEROCYCLIC)PYRIMIDINE-4-CARBOXYLATES AND THEIR USE AS HERBICIDES” (Dow AgroSciences LLC, priority 2013, published 2017).
# Where two headings read alike, the source gives them in different places.
# Key:
# Format in all cases: in vivo
# [1] = system: Key Broadleaf Weed and Crop Species; experiment: Post-emergent Test II herbicidal activity (Table 15); conditions: post-emergence, 336 h, 14 d; for pest or weed control at 35 g/ha: 35 g ai/ha; for pest or weed control at 70 g/ha: 70 g ai/ha; for pest or weed control at 140 g/ha: 140 g ai/ha
# Procedure, shortened: (§1)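 Visual injury rating (0 = none, 100 = complete kill) taken 14 d after treatment, relative to untreated plants. Compounds in acetone/DMSO with crop oil concentrate and Triton X-155 were track-sprayed at 187 L/ha onto seedlings at the first-second true leaf stage.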
# undesirable vegetation = experiment: Herbicidal activity, comparison X is CF with X is CH; conditions: 1.08 and 1.09 vs 1.21 and 1.22; 1.15 and 1.16 vs 1.23 and 1.24; A is A15
# [2] = system: Key Grass and Sedge Weeds as well as Grass Crops; experiment: Post-emergent Test II herbicidal activity (Table 16); conditions: post-emergence, 336 h, 14 d; for pest or weed control at 35 g/ha: 35 g ai/ha; for pest or weed control at 70 g/ha: 70 g ai/ha; for pest or weed control at 140 g/ha: 140 g ai/ha
# Procedure, shortened: as §1
# [3] = Abutilon theophrasti, velvetleaf (Abutilon theophrasti), read-out: Visual Growth Reduction (%) 14 Days After Application, ABUTH
# [4] = Amaranthus retroflexus, redroot pigweed (Amaranthus retroflexus), read-out: Visual Growth Reduction (%) 14 Days After Application, AMARE
# [5] = Brassica napus, oilseed rape, canola (Brassica napus), read-out: Visual Growth Reduction (%) 14 Days After Application, BRSNN
# [6] = Chenopodium album, lambsquarters (Chenopodium album), read-out: Visual Growth Reduction (%) 14 Days After Application, CHEAL
# [7] = Euphorbia heterophylla, wild poinsettia (Euphorbia heterophylla), read-out: Visual Growth Reduction (%) 14 Days After Application, EPHHL
# [8] = Helianthus annuus, sunflower (Helianthus annuus), read-out: Visual Growth Reduction (%) 14 Days After Application, HELAN
# [9] = Cyperus esculentus, yellow nutsedge (Cyperus esculentus), read-out: Visual Growth Reduction (%) 14 Days After Application, CYPES
# [10] = Echinochloa crus-galli, barnyardgrass (Echinochloa crus-galli), read-out: Visual Growth Reduction (%) 14 Days After Application, ECHCG
# [11] = Oryza sativa, rice (Oryza sativa), read-out: Visual Growth Reduction (%) 14 Days After Application, ORYSA
# [12] = Setaria faberi, giant foxtail (Setaria faberi), read-out: Visual Growth Reduction (%) 14 Days After Application, SETFA
# [13] = Triticum aestivum, wheat, spring (Triticum aestivum), read-out: Visual Growth Reduction (%) 14 Days After Application, TRZAS
# [14] = Zea mays, maize, corn (Zea mays), read-out: Visual Growth Reduction (%) 14 Days After Application, ZEAMX
compound,measurement,setting,value
"COC(=O)c1nc(-c2ccc3cc[nH]c3c2F)c(F)c(N)c1Cl [Compound 1.15, Methyl 4-amino-3-chloro-5-fluoro-6-(7-fluoro-1H-indol-6-yl)picolinate]",pest or weed control at 35 g/ha,[1]; [3],95 to 100%
same,pest or weed control at 70 g/ha,[1]; [3],95 to 100%
same,pest or weed control at 140 g/ha,[1]; [3],95 to 100%
same,pest or weed control at 35 g/ha,[1]; [4],95 to 100%
same,pest or weed control at 70 g/ha,[1]; [4],95 to 100%
same,pest or weed control at 140 g/ha,[1]; [4],95 to 100%
same,pest or weed control at 35 g/ha,[1]; [5],75 to 84%
same,pest or weed control at 70 g/ha,[1]; [5],95 to 100%
same,pest or weed control at 140 g/ha,[1]; [5],95 to 100%
same,pest or weed control at 35 g/ha,[1]; [6],95 to 100%
same,pest or weed control at 70 g/ha,[1]; [6],95 to 100%
same,pest or weed control at 140 g/ha,[1]; [6],95 to 100%
same,pest or weed control at 35 g/ha,[1]; [7],95 to 100%
same,pest or weed control at 70 g/ha,[1]; [7],95 to 100%
same,pest or weed control at 140 g/ha,[1]; [7],95 to 100%
same,pest or weed control at 35 g/ha,[1]; [8],95 to 100%
same,pest or weed control at 70 g/ha,[1]; [8],95 to 100%
same,pest or weed control at 140 g/ha,[1]; [8],95 to 100%
same,activity when X is CF compared with X is CH,undesirable vegetation,significant increase in activity
same,pest or weed control at 35 g/ha,[2]; [9],0 to 29%
same,pest or weed control at 70 g/ha,[2]; [9],60 to 74%
same,pest or weed control at 140 g/ha,[2]; [9],45 to 59%
same,pest or weed control at 35 g/ha,[2]; [10],75 to 84%
same,pest or weed control at 70 g/ha,[2]; [10],85 to 94%
same,pest or weed control at 140 g/ha,[2]; [10],95 to 100%
same,pest or weed control at 35 g/ha,[2]; [11],0 to 29%
same,pest or weed control at 70 g/ha,[2]; [11],0 to 29%
same,pest or weed control at 140 g/ha,[2]; [11],30 to 44%
same,pest or weed control at 35 g/ha,[2]; [12],60 to 74%
same,pest or weed control at 70 g/ha,[2]; [12],60 to 74%
same,pest or weed control at 140 g/ha,[2]; [12],85 to 94%
same,pest or weed control at 35 g/ha,[2]; [13],45 to 59%
same,pest or weed control at 70 g/ha,[2]; [13],60 to 74%
same,pest or weed control at 140 g/ha,[2]; [13],60 to 74%
same,pest or weed control at 35 g/ha,[2]; [14],0 to 29%
same,pest or weed control at 70 g/ha,[2]; [14],30 to 44%
same,pest or weed control at 140 g/ha,[2]; [14],60 to 74%
"Nc1c(F)c(-c2ccc3cc[nH]c3c2F)nc(C(=O)O)c1Cl [Compound 1.16, 4-Amino-3-chloro-5-fluoro-6-(7-fluoro-1H-indol-6-yl)picolinic acid]",pest or weed control at 35 g/ha,[1]; [3],85 to 94%
same,pest or weed control at 70 g/ha,[1]; [3],95 to 100%
same,pest or weed control at 140 g/ha,[1]; [3],95 to 100%
same,pest or weed control at 35 g/ha,[1]; [4],95 to 100%
same,pest or weed control at 70 g/ha,[1]; [4],95 to 100%
same,pest or weed control at 140 g/ha,[1]; [4],95 to 100%
same,pest or weed control at 35 g/ha,[1]; [5],95 to 100%
same,pest or weed control at 70 g/ha,[1]; [5],95 to 100%
same,pest or weed control at 140 g/ha,[1]; [5],95 to 100%
same,pest or weed control at 35 g/ha,[1]; [6],95 to 100%
same,pest or weed control at 70 g/ha,[1]; [6],95 to 100%
same,pest or weed control at 140 g/ha,[1]; [6],95 to 100%
same,pest or weed control at 35 g/ha,[1]; [7],95 to 100%
same,pest or weed control at 70 g/ha,[1]; [7],95 to 100%
same,pest or weed control at 140 g/ha,[1]; [7],95 to 100%
same,pest or weed control at 35 g/ha,[1]; [8],95 to 100%
same,pest or weed control at 70 g/ha,[1]; [8],95 to 100%
same,pest or weed control at 140 g/ha,[1]; [8],85 to 94%
same,activity when X is CF compared with X is CH,undesirable vegetation,significant increase in activity
same,pest or weed control at 35 g/ha,[2]; [9],0 to 29%
same,pest or weed control at 70 g/ha,[2]; [9],60 to 74%
same,pest or weed control at 140 g/ha,[2]; [9],85 to 94%
same,pest or weed control at 35 g/ha,[2]; [10],75 to 84%
same,pest or weed control at 70 g/ha,[2]; [10],85 to 94%
same,pest or weed control at 140 g/ha,[2]; [10],95 to 100%
same,pest or weed control at 35 g/ha,[2]; [11],30 to 44%
same,pest or weed control at 70 g/ha,[2]; [11],60 to 74%
same,pest or weed control at 140 g/ha,[2]; [11],60 to 74%
same,pest or weed control at 35 g/ha,[2]; [12],60 to 74%
same,pest or weed control at 70 g/ha,[2]; [12],75 to 84%
same,pest or weed control at 140 g/ha,[2]; [12],85 to 94%
same,pest or weed control at 35 g/ha,[2]; [13],30 to 44%
same,pest or weed control at 70 g/ha,[2]; [13],60 to 74%
same,pest or weed control at 140 g/ha,[2]; [13],60 to 74%
same,pest or weed control at 35 g/ha,[2]; [14],0 to 29%
same,pest or weed control at 70 g/ha,[2]; [14],30 to 44%
same,pest or weed control at 140 g/ha,[2]; [14],60 to 74%
